In patent publication US11291235B2, “Phloretin” (Firmenich SA, priority 2016, dated 2022):

Tests used:
Type in all cases: in vivo
[1] = Sensory evaluation of tropical flavored soft drink containing 7% sucrose, with and without phloretin
[2] = Sensory assessment of pasteurized sweet water solution of pea protein isolate, with and without phloretin; details: 30 ppm phloretin, eight panelists, 0 to 5 scale, Duncan test
Procedure: To evaluate sensory effect of phloretin on pea protein solution Evaluation in blind and randomized conditions of pasteurized sweet water solution of pea protein isolate • 1. Control: no phloretin added • 2. Test: 30 ppm phloretin added (via a presolution 10% in propylene glycol) Weigh and premix protein with sugar (600 gram preparation) Dispersion/solubilisation of protein-sugar-water to obtain a “mother mixture”: disperse mix protein/sugar in water (becher—deionized water 40° C.—Mini Ultra-Turrax T18—Speed 2—time:7 minutes). The same “mother mixture” for both the Control and Test trials. Add phloretin (fresh dilution 10% in propylene Glycol) in Test trial. Split each trials in 2 glass bottles: 100 g for pre-evaluation and generation of sensory attributes—200 gram for sensory assessment Pasteurisation (water bach—95° C.—30 minutes). Cooling bottles at room temperature—Storage in fridge until tasting. Perform Sensory assessment at room temperature. Eight panelists were asked to rate intensity of sensory attributes using a 0 to 5 structured scale (from 0 ‘not perceptible’ to 5 ‘strong intensity’). Sensory descriptors were selected to assess taste, tactile and aromatic stimuli Data treatment was run with XLSTAT software (Duncan mean comparison test). Sensory attributes were selected during a preliminary series of applications evaluated in a free-description mode Symbols for significant differences * at 95% (See FIG. 5). […] Other sensory attributes related to taste (“Sweetness”, “Bitterness”), tactile (mouthcoating) or aromatic stimuli (“cereal”) were unmodified.

[3] = Phloretin as taste modifier in foods and beverages containing steviol glycosides and rebaudioside
[4] = Sensory evaluation of strawberry yogurt sweetened with 250 ppm Stevia (SG95), with and without phloretin
[5] = Sensory evaluation of tropical juice drink sweetened with sucrose (5%) and Stevia (25 ppm), with and without phloretin
[6] = Tasting of phloretin in water or model beverage solution of water and citric acid; details: tasted in water or in water and citric acid
[7] = Sensory evaluation of pomegranate juice (POM Brand) sweetened with 150 ppm SG95, with and without phloretin
[8] = 30 ppm Phloretin, tropical soft drink with 7% sucrose, in words
[9] = sensory score, 7% Sucrose + 30 ppm Phloretin, tropical soft drink
[10] = 20 ppm Phloretin, strawberry yogurt with 250 ppm Stevia, in words
[11] = sensory score, Stevia @250 ppm + 20 ppm Phloretin, strawberry yogurt, n = 29
[12] = 30 ppm Phloretin, sugar (5%) and Stevia (25 ppm) tropical juice drink, in words
[13] = sensory score, Sucrose (5%) and Stevia (25 ppm) control + Phloretin @ 30 ppm, tropical juice drink
[14] = 35 ppm Phloretin, pomegranate juice with 150 ppm Stevia, in words
[15] = sensory score, Pom Juice + SG95 @150 ppm + Phloretin @ 35 ppm

O=C(CCc1ccc(O)cc1)c1c(O)cc(O)cc1O [Phloretin, 3-(4-hydroxyphenyl)-1-(2,4,6-trihydroxyphenyl)propan-1-one]
acidity/sourness, effect of phloretin [1, 8]: significantly reduced | astringency, effect of phloretin [1, 8]: significantly reduced | bitterness, effect of phloretin [1, 8]: significantly reduced | Acidity/Sourness intensity [1, 9]: 3.27 | Astringency intensity [1, 9]: 2.05 | Bitterness intensity [1, 9]: 1.9 | Mango Flavor intensity [1, 9]: 6.04 | Off-Note intensity [1, 9]: 1.72 | Overall Flavor intensity [1, 9]: 6.76 | Passion Fruit Flavor intensity [1, 9]: 5.69 | Tropical Flavor intensity [1, 9]: 6.55 | Sweetness, effect of phloretin [2]: unmodified | aromatic stimuli (cereal), effect of phloretin [2]: unmodified | bitterness, effect of phloretin [2]: unmodified | score in astringency, effect of phloretin [2]: significantly reduce | score in off-tastes, effect of phloretin [2]: significantly reduce | tactile (mouthcoating), effect of phloretin [2]: unmodified | off-note masking: bitterness [3]: reduced bitterness | off-note masking: licorice [3]: reduced licorice | off-note masking: linger [3]: reduced linger | Strawberry flavor intensity versus control [4, 10]: higher | licorice taste versus control [4, 10]: significantly lower | Acidity [4, 11]: 2.56 | Fruity [4, 11]: 3.25 | Green [4, 11]: 2.38 | Jammy [4, 11]: 3.19 | Licorice [4, 11]: 1.44 | Long Lasting [4, 11]: 2.56 | Strawberry Flavor [4, 11]: 3.56 | Sweetness [4, 11]: 3.38 | astringency, effect of phloretin [5, 12]: significantly reduced | bitterness, effect of phloretin [5, 12]: significantly reduced | Acidity [5, 13]: 2.93 | Astringency [5, 13]: 1.21 | Bitterness [5, 13]: 0.57 | Long-lasting (sweet) [5, 13]: 0.50 | Off-notes [5, 13]: 1.21 | Overall Flavor [5, 13]: 3.71 | Sweetness [5, 13]: 2.29 | own flavor of phloretin [6]: nearly no flavor on its own | Bitterness Intensity, effect of phloretin [7, 14]: significantly reduces | Pomegranate flavor intensity, effect of phloretin [7, 14]: significantly increasing | Sourness intensity, effect of phloretin [7, 14]: significantly reduces | Astringent [7, 15]: 4.1 | Berry Flv intensity [7, 15]: 6.01 | Bitterness [7, 15]: 3.35 | Pomegranate Flv intensity [7, 15]: 6.68 | Sourness intensity [7, 15]: 4.75 | Sweetness intensity [7, 15]: 5.79
